Test results reported in publication PMC6155811, “Effect of Phenolic Compounds from Elderflowers on Glucose- and Fatty Acid Uptake in Human Myotubes and HepG2-Cells” (Molecules : A Journal of Synthetic Chemistry and Natural …, 2017).
Where two headings read alike, the source gives them in different places.

Columns and labels:
[1] = tested on: human skeletal muscle cells; experiment: Glucose uptake in human myotubes ([14C(U)]-glucose); assay type: cell-based; settings: for increase in glucose uptake: 10 µM, 2 days, vs 0.1% DMSO control, mean ± SEM
Experimental: Figure 2 Effects of elderflower extracts, constituents and metabolites on glucose uptake in human myotubes. Myotubes were treated with (A) 12.5, 25 and 50 µg/mL of different crude extracts; (B,C) 0.1, 1 and 10 µM of elderflower phenolic compounds and metabolites for 2 days. Thereafter, the cells were exposed to [^14C(U)]-glucose (1 μCi/mL, 100 μM) for 4 h as described in the Materials and Methods section. 22-S-hydroxycholesterol (22-SHC) (10 μM) was used as positive control. The figures show [^14C(U)]-glucose uptake given as means ± standard error of the mean (SEM) (n = 3) from separate experiments. * p < 0.05 vs. control (0.1% dimethyl sulfoxide (DMSO)).
(§1) Satellite cells were isolated from the Musculus obliquus internus abdominis of four healthy donors, age 34.8 (±19) years, body mass index 22.9 (±2.7) kg/m^2, fasting glucose 4.9 (±0.6) mM, insulin, plasma lipids and blood pressure within normal range and no family history of diabetes. The muscle biopsies were obtained with informed consent and approval by the National Committee for Research Ethics (Oslo, Norway). The cells were cultured on 96-well CellBIND microplates DMEM-Glutamax (5.5 mM glucose), 2% fetal bovine serum, 2% Ultroser G, penicillin (100 units/mL), streptomycin (100 μg/mL) and amphotericin B (1.25 μg/mL) for proliferation. At 70%–80% confluence, the growth medium was replaced by DMEM-Glutamax (5.5 mM glucose) supplemented with 2% fetal bovine serum, penicillin (100 units/mL), streptomycin (100 μg/mL), amphotericin B (1.25 μg/mL) and insulin (25 pM), to induce differentiation. The cells were cultured in humidified 5% CO2 atmosphere at 37 °C, and the medium was changed every 2–3 days. Experiments were performed after 7 days of differentiation. 22-S-hydroxycholesterol (22-SHC) (10 µM) was used as positive control in the glucose uptake assay. The positive control used in the oleic acid assay is the synthetic liver X receptor (LXR) agonist T0901317 (10 µm).
(§2) Cells were exposed to test samples solved in 0.1% DMSO that were added directly to the medium for 2 days for myotubes and 24 h for HepG2 cells. Thereafter, cells were exposed to [^14C(U)]-glucose (1 μCi/mL, 100 μM) or [^14C]-oleic acid (37 kBq, 100 µM) for 4 h. A 96-well UniFilter-96 GF7B microplate (Perkin Elmer, Waltham, MA, USA) was mounted on top of the CellBIND plate (Corning Life-Sciences (Schiphol-Rijk, The Netherlands) and CO2 production was measured. After incubation the cells were washed twice with ice-cold phosphate buffered saline (PBS), lysed in 0.1 M NaOH, and radioactivity measured by liquid scintillation counting. The protein content of each sample was determined and glucose uptake was calculated using protein levels for standardization.

[2] = tested on: human skeletal muscle cells; experiment: Oleic acid uptake in human myotubes ([14C]-oleic acid); assay type: cell-based; settings: for increase in oleic acid uptake: 10 µM (highest concentration tested), 2 days, vs 0.1% DMSO control
Experimental: Figure 3 Effects of elderflower extracts, constituents and metabolites on oleic acid uptake in human myotubes. Myotubes were treated with (A) 12.5, 25 and 50 µg/mL of different crude extracts; (B,C) 0.1, 1 and 10 µM of elderflower phenolic compounds and metabolites for 2 days. Thereafter, the cells were exposed to [^14C]-oleic acid (37 kBq, 100 µM) for 4 h as described in Materials and Methods. A synthetic liver X receptor (LXR) agonist T0901317 (10 μM) was used as positive control. The figures show [^14C]-oleic acid uptake given as means ± SEM (n = 3) from separate experiments. * p < 0.05 vs. control (0.1% DMSO).
as §1, §2

[3] = molecular target: T1, Baker's yeast α-glucosidase (Saccharomyces cerevisiae, UniProt P53341); experiment: biochemical; settings: IC50 ± SD
T1 construct: purchased Sigma-Aldrich Chemie GmbH (Steinheim, Germany)
T1 sequence (P53341 whole entry): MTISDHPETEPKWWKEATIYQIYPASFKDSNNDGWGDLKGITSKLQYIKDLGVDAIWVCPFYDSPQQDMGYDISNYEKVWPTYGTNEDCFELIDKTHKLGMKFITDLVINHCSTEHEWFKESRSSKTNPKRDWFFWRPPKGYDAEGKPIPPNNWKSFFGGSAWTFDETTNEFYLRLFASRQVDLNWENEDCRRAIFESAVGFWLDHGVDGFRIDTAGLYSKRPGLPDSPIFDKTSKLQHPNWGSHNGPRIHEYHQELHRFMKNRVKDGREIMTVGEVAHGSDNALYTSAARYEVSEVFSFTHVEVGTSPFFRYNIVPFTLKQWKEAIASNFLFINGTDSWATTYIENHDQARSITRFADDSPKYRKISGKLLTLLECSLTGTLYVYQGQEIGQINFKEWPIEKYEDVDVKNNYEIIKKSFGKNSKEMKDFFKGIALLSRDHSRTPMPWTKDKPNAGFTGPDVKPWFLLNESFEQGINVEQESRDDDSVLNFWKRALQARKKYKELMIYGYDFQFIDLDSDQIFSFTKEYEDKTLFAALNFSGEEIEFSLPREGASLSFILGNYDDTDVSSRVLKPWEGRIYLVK
Experimental: The α-glucosidase inhibitory activity of the extracts was assessed according to the method described by Ranilla, et al.. Baker’s yeast α-glucosidase (EC 3.2.1.20) was purchased from Sigma-Aldrich Chemie GmbH (Steinheim, Germany).

[4] = molecular target: T2, Porcine pancreatic α-amylase (Sus scrofa, UniProt P00690); experiment: α-Amylase inhibitory activity; assay type: biochemical; settings: phenolic compounds and metabolites; IC50 ± SD
T2 construct: purchased Sigma-Aldrich Chemie GmbH
T2 sequence (P00690 16-511): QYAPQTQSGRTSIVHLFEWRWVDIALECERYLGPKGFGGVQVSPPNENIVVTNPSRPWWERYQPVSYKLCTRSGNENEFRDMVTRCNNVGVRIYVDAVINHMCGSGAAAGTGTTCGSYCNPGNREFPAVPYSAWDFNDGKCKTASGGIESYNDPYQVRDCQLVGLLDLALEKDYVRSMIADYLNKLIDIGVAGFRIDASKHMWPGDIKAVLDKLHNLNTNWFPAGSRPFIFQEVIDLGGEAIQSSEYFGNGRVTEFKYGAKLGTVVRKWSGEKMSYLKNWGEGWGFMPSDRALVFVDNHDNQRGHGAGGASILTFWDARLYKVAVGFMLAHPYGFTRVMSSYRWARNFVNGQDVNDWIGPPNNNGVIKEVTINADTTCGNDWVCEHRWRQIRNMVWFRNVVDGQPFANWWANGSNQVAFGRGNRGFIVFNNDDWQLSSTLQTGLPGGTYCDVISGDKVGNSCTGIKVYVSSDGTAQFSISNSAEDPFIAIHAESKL
Experimental: The α-amylase assay was performed as described by Gella, et al.. Porcine pancreatic α-amylase (EC 3.2.1.1) was purchased from Sigma-Aldrich Chemie GmbH.

DPPH radical scavenging = settings: phenolic compounds and metabolites; IC50 ± SD
Experimental: Scavenging activity towards the DPPH radical was carried out as previously described. Test substances were dissolved in DMSO or water. Values were corrected for absorbance of the test substances.

[5] = molecular target: T3, 15-lipoxygenase (15-LO) from soybeans (Glycine max, UniProt P08170); experiment: Inhibition of 15-lipoxygenase; assay type: biochemical, soybean; settings: IC50 ± SD
T3 construct: 15-lipoxygenase (15-LO) from soybeans; purchased Sigma-Aldrich (St. Louis, MO, USA); host or cells: soybeans
T3 sequence (P08170 1-839): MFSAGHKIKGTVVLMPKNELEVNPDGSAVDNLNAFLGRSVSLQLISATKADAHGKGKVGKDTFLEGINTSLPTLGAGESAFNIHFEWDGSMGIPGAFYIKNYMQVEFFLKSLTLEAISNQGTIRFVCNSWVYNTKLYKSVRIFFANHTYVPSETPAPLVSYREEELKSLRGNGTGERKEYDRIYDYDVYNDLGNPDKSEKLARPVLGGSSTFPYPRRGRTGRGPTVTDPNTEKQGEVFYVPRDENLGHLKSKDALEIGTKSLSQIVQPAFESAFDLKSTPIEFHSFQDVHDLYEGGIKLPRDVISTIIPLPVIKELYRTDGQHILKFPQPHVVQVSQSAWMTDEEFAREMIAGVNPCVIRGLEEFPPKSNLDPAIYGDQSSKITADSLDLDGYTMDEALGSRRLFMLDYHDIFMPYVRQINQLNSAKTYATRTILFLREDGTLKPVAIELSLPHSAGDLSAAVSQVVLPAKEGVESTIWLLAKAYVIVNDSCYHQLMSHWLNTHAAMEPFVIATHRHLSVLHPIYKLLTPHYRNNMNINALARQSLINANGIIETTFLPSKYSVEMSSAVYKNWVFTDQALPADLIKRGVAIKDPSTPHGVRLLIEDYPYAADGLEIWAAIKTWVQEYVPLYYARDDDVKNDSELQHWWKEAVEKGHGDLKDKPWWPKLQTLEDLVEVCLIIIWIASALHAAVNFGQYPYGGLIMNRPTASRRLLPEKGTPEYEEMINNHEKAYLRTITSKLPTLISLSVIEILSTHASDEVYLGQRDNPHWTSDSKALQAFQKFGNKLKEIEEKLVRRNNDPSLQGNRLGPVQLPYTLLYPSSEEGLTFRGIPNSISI
Experimental: Test substances were dissolved in DMSO or water, and the assay was carried out as previously described.

[6] = molecular target: T4, xanthine oxidase from bovine milk (Bos taurus, UniProt P80457); experiment: Inhibition of xanthine oxidase; assay type: biochemical; settings: for IC50: phenolic compounds and metabolites, IC50 ± SD, read-out: XO IC50; for XO inhibition (in words): up to highest concentration tested (167 µM)
T4 construct: xanthine oxidase from bovine milk; purchased Sigma-Aldrich (St. Louis, MO, USA); host or cells: bovine milk
T4 sequence (P80457 whole entry): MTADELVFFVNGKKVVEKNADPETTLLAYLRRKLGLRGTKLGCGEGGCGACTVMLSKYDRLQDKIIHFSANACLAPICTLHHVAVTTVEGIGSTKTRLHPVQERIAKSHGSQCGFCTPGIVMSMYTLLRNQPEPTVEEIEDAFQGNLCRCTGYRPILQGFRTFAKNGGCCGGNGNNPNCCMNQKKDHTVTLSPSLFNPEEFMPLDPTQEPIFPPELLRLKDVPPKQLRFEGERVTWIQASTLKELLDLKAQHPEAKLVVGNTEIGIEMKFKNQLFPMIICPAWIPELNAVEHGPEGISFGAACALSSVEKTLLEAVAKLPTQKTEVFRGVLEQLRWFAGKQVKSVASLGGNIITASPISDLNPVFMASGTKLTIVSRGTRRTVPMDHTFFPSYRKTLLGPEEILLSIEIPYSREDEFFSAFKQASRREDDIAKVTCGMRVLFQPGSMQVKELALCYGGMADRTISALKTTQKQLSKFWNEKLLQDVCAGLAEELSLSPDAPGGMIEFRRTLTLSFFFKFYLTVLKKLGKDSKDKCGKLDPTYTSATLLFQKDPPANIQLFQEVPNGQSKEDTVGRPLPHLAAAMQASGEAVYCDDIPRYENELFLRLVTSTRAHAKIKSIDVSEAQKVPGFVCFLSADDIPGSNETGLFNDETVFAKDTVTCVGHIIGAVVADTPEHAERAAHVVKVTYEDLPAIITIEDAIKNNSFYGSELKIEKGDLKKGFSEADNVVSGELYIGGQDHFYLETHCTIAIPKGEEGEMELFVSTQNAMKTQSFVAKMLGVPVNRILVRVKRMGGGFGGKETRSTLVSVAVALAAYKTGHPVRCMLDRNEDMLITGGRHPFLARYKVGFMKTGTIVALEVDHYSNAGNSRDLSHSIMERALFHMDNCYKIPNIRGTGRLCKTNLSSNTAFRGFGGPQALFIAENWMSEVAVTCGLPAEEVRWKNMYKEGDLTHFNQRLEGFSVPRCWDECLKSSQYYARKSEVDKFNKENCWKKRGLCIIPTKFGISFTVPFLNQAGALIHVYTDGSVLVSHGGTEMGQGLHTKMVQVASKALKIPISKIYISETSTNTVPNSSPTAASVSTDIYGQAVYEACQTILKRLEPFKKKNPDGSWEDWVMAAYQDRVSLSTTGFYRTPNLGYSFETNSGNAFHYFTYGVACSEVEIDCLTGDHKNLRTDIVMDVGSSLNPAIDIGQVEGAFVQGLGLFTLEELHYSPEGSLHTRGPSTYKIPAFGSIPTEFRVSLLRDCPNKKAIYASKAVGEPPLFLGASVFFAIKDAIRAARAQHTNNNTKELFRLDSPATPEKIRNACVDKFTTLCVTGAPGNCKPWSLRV
Experimental: The XO inhibitory activity with hypoxanthine as the substrate was carried out previously described. Test substances were dissolved in DMSO or water.

[7] = phenolic compounds and metabolites, read-out: α-Glucosidase IC50
[8] = phenolic compounds and metabolites, read-out: 15-LO IC50
[9] = α-Glucosidase IC50, phenolic compounds and metabolites
[10] = 15-LO IC50, phenolic compounds and metabolites

SMILES | glucose uptake (in words) ([1]; 10 µM (highest concentration tested)) | oleic acid uptake (in words) ([2]; 10 µM) | IC50 [3, 7] [µM] | IC50 [4] [µM] | IC50 (DPPH radical scavenging) [µM] | IC50 [5, 8] [µM] | IC50 [6] [µM] | XO inhibition (in words) [6] | increase in glucose uptake [1] | IC50 [3, 9] [µM] | IC50 [5, 10] [µM] | increase in oleic acid uptake [2] | glucose uptake (in words) ([1]; 0.1 and 1 µM, compared to DMSO control)
O=C(O)Cc1ccc(O)c(O)c1 [3,4-Dihydroxyphenylacetic acid] | small increase | small but significant increase | 78.5 ± 1.6 | 74.9 ± 1.7 | 116 ± 1.4 | 135 ± 7.3 | > 167 | inactive | – | – | – | – | –
COc1cc(-c2oc3cc(O)cc(O)c3c(=O)c2O)ccc1O [Isorhamnetin] | – | – | – | – | 63.3 ± 2.3 | – | – | – | 18.8% ± 4.3% | 8.1 ± 3.1 | 103 ± 2.4 | – | –
O=C1C[C@@H](c2ccc(O)cc2)Oc2cc(O)cc(O)c21 [Naringenin] | – | – | – | 6.2 ± 1.1 | 23.3 ± 1.4 | 124 ± 3.5 | 95.1 ± 4.5 | – | – | – | – | – | –
O=c1c(OC2OC(CO)C(O)C(O)C2O)c(-c2ccc(O)c(O)c2)oc2cc(O)cc(O)c12 (stereo not shown) [Quercetin-3-glucoside] | – | – | – | 3 ± 1.2 | 17.6 ± 3.2 | – | 106 ± 5.3 | – | – | 4.1 ± 1.9 | – | 13.1% ± 3.5% | –
CC1OC(Oc2c(-c3ccc(O)c(O)c3)oc3cc(O)cc(O)c3c2=O)C(O)C(O)C1O (stereo not shown) [Quercetin-3-rhamnoside] | – | – | – | 3.5 ± 0.9 | 19.1 ± 2.1 | 108 ± 4.6 | 105 ± 4.6 | – | – | 3.9 ± 1.4 | – | 5.0% ± 6.0% | –
Oc1cc(O)c2c(c1)O[C@H](c1ccc(O)c(O)c1)[C@@H](O)C2 [Catechin] | – | – | 18.5 ± 2.2 | 14.1 ± 0.8 | 19 ± 1.1 | – | > 167 | did not inhibit | – | – | – | – | –
C[C@@H]1O[C@@H](OC[C@H]2O[C@@H](Oc3c(-c4ccc(O)c(O)c4)oc4cc(O)cc(O)c4c3=O)[C@H](O)[C@@H](O)[C@@H]2O)[C@H](O)[C@H](O)[C@H]1O [Rutin, Quercetin-3-rutinoside] | – | – | – | 4.1 ± 0.8 | 22.5 ± 1.6 | 99.3 ± 1.1 | 42.9 ± 2.9 | – | – | 4.6 ± 2.3 | – | – | –
O=C(O)/C=C/c1ccc(O)c(O)c1 [Caffeic acid] | – | – | – | – | 90.3 ± 4.3 | – | 107 ± 3.2 | – | – | 18.5 ± 0.9 | – | – | –
O=C(O)c1ccccc1 [Benzoic acid] | – | – | – | – | 145 ± 5.8 | – | > 167 | inactive | – | 129 ± 3.8 | 138 ± 6.5 | – | inactive
CC1OC(OCC2OC(Oc3c(-c4ccc(O)cc4)oc4cc(O)cc(O)c4c3=O)C(O)C(O)C2O)C(O)C(O)C1O (stereo not shown) [Kaempferol-3-rutinoside] | – | – | – | 19.1 ± 0.5 | 30.6 ± 3.9 | 109 ± 5.6 | 63.8 ± 2.1 | – | 29.7% ± 2.5% | 23.9 ± 1.1 | – | – | –
Oc1cc(O)c2c(c1)O[C@H](c1ccc(O)c(O)c1)[C@H](O)C2 [Epicatechin] | – | – | 12.1 ± 2.3 | 9.7 ± 2.1 | 15.6 ± 2.3 | 116 ± 7.9 | > 167 | did not inhibit | – | – | – | – | –
COc1cc(-c2oc3cc(O)cc(O)c3c(=O)c2OC2OC(COC3OC(C)C(O)C(O)C3O)C(O)C(O)C2O)ccc1O (stereo not shown) [Isorhamnetin-3-rutinoside] | – | – | 25.2 ± 2.9 | 26.2 ± 0.7 | 85 ± 2.1 | 115 ± 6.2 | 125 ± 3.9 | – | 10.0% ± 3.6% | – | – | – | –
O=C(C=Cc1ccc(O)c(O)c1)OC1CC(O)(C(=O)O)CC(O)C1O (stereo not shown) [Neochlorogenic acid] | – | – | – | 15.4 ± 3.2 | – | 115 ± 5.8 | 26.2 ± 3.1 | – | – | – | – | – | –
